# Results: patent US12716050B2, “Two methods for preparing universal microbial medium by eutectic system-based cellulose liquefaction” (Xinjiang University, priority 2021, dated 2026)
# Like-named read-outs stand apart in the source and are kept apart here.
# Key:
# [1] = Screening of ionic liquids for dissolving microcrystalline cellulose; assay type: physicochemical
# Escherichia coli = conditions: LB solid medium, 48 h
# Excerpt: Therefore, a purpose of this example is to screen a concentration range of the ionic liquid contained in the medium.
# [2] = No. 8: 10 g IL, 1 g microcrystalline cellulose, 90° C., co-heated
# [3] = No. 11: 5 g IL, 3 g microcrystalline cellulose, 90° C., co-heated
# [4] = No. 3: 5 g IL, 3 g microcrystalline cellulose, 90° C., co-heated
smiles,measurement,setting,value
C=CCn1cc[n+](C)c1.[Cl-] [1-allyl-3-methylimidazolium chloride],Conclusion (dissolution effect of microcrystalline cellulose),[1]; [2],desirable
same,Dissolution time,[1]; [2],40 min
same,Conclusion (dissolution effect of microcrystalline cellulose),"[1]; No. 9: 5 g IL, 1 g microcrystalline cellulose, IL heated to 100° C.",common
same,Dissolution time,"[1]; No. 9: 5 g IL, 1 g microcrystalline cellulose, IL heated to 100° C., cellulose added",20 min
same,Conclusion (dissolution effect of microcrystalline cellulose),"[1]; No. 10: 5 g IL, 2 g microcrystalline cellulose, 100° C., soaked in IL for 20 h, co-heated",common
same,Dissolution time,"[1]; No. 10: 5 g IL, 2 g microcrystalline cellulose, 100° C., soaked in IL for 20 h, co-heated in water bath",10 min
same,Conclusion (dissolution effect of microcrystalline cellulose),[1]; [3],has a poor
same,Dissolution time,[1]; [3],240 min
CCCCn1cc[n+](C)c1.[Cl-] [1-butyl-3-methylimidazolium chloride],Conclusion (dissolution effect of microcrystalline cellulose),"[1]; No. 1: 10 g IL, 1 g microcrystalline cellulose, 90° C., co-heated",desirable
same,Dissolution time,"[1]; No. 1: 10 g IL, 1 g microcrystalline cellulose, 90° C., co-heated, stirred 20 sec every 5 min",40 min
same,Conclusion (dissolution effect of microcrystalline cellulose),"[1]; No. 2: 5 g IL, 3 g microcrystalline cellulose, 110° C., IL preheated to liquid state",desirable
same,Dissolution time,"[1]; No. 2: 5 g IL, 3 g microcrystalline cellulose, 110° C., IL preheated to liquid state, mixed by stirring",1 min
same,Conclusion (dissolution effect of microcrystalline cellulose),[1]; [4],common
same,Dissolution time,[1]; [4],240 min
same,Effect in pretreatment of cellulose,[1]; overall conclusion of Example 1,could well process the cellulose
same,Conclusion (dissolution effect),"Treatment 1: 10 g IL, 1 g microcrystalline cellulose, co-heated to 90° C., repeated",Poor
same,Conclusion (dissolution effect),"Treatment 2: 10 g IL, 1 g cellulose, IL heated to 90° C., heating to 90° C. repeated",Common
same,Conclusion (dissolution effect),"Treatment 3: 10 g IL, 1 g cellulose, IL heated to 90° C., heating to 100° C. repeated",Common
same,Conclusion (dissolution effect),"Treatment 4: 10 g IL, 1 g cellulose, IL heated to 90° C., heating to 110° C. repeated",Common
same,Conclusion (dissolution effect),"Treatment 5: 10 g IL, 1 g cellulose, IL heated to 90° C., heating to 120° C. repeated",Common
same,Conclusion (dissolution effect),"Treatment 6: 10 g IL, 1 g cellulose, 90° C., 120° C., heating to 180° C. repeated",Desirable
same,Conclusion (dissolution effect),"Treatment 7: 8 g IL, 1 g cellulose, 90° C., 120° C., heating to 180° C. repeated",Desirable
same,Conclusion (dissolution effect),"Treatment 8: 5 g IL, 1 g cellulose, 90° C., 180° C., heating to 180° C. repeated",Desirable
same,Conclusion (dissolution effect),"Treatment 9: 5 g IL, 1.5 g cellulose, 90° C., 120° C., heating to 180° C. repeated",Desirable
same,Conclusion (dissolution effect),"Treatment 10: 5 g IL, 2 g cellulose, 90° C., 120° C., heating to 180° C. repeated",Desirable
same,Conclusion (dissolution effect),"Treatment 11: 5 g IL, 2.5 g cellulose, 90° C., 120° C., heating to 180° C. repeated",Desirable
same,Ionic liquid concentration at which the growth of Escherichia coli is inhibited,Escherichia coli,not less than 3%
same,Growth state of strains,Escherichia coli; ionic solution concentration 1%,Normal
same,Growth state of strains,Escherichia coli; ionic solution concentration 3%,Slightly inhibited
same,Growth state of strains,Escherichia coli; ionic solution concentration 4%,Inhibited growth
same,Growth state of strains,Escherichia coli; ionic solution concentration 5%,Inhibited growth
same,Growth state of strains,Escherichia coli; ionic solution concentration 6%,No growth
same,Growth state of strains,Escherichia coli; ionic solution concentration 7%,No growth
